Measurements from US20070123514A1, “Methods of modulating neurotrophin-mediated activity” (PainCeptor Pharma Corporation, priority 2005, published 2007).

Tests used:
[1] = tested on: PC12 (TrkA & p75); assay: 125I-NGF binding displacement in PC12 cells; design: species or system rat; conditions: for blocking of NGF binding (dose-response curve): PC12 cells expressing TrkA and p75, result in words; for PC12 (TrkA & p75) Single point (% max binding) Mean: PC12 cells
Description: The method for acquiring the PC12 data described in Table 1 is described herein in Example 1. Each experiment was done at least once with an n value of 4 for each data point. (n/a=not acquired)
(§1) All cells were incubated at 37° C. in 5% CO2. PC12 cells were maintained in RPMI-1640 medium supplemented with 10% fetal bovine serum (FBS). A875 human melanoma cells were maintained in DMEM with 10% FBS. HEK 293 cells were stably transfected with human TrkA plasmid (see below) and maintained in DMEM with 10% FBS and G418 (600 μg/mL) for selection.
NGF binding was evaluated using methods familiar to those who are skilled in the art. Briefly, cells expressing one or both NGF receptors (PC12: TrkA+p75; A875: p75 alone; HEK_trkA: TrkA alone) were harvested by replacing the medium with calcium-magnesium free balanced salt (Grey's) solution and incubating at 37° C. for 15 min. For NGF binding, cells were resuspended at a concentration of 2×10^6 cells/mL in HEPES-Krebs-Ringer (HKR) buffer (10 mM HEPES; 125 mM NaCl; 4.8 mM KCl; 1.3 mM CaCl2; 1.2 mM MgSO4; 1.2 mM KH2PO4; 1 mg/ml BSA; 1 mg/ml glucose; pH 7.4) and exposed to ^125I-NGF (˜0.1 nM) in the presence or absence of varying concentrations of the compound. Non-specific binding was determined for reference by incubating ^125I-NGF with an excess of non-radioactive NGF in the abence of compound. Following a two-hour incubation period at 4° C., ^125I-NGF bound to the cells was quantified in a gamma radiation counter following separation from unbound NGF by filtration or centrifugation through glycerol (10% in HKR). Inhibition of binding was calculated as a percent of the specific binding (calculated as the differential between ^125I-NGF binding in the absence and presence of an excess of non-radioactive NGF without compound). Dose-response inhibition curves were typically generated with seven concentrations of a given compound, with three replicates for each concentration. For most compounds, multiple dose-response curves were generated.
The IC50 data shown in Table 1 were acquired using the procedure described herein using PC12 cells.

[2] = tested on: human TrkA (HEK_trkA: TrkA alone); assay: 125I-NGF binding displacement in HEK_trkA cells; conditions: result in words
Description: as §1
Expression of human TrkA in HEK cells was achieved by transfecting the cells with the TrkA expression vector using Lipofectamine (Invitrogen) reagent. HEK cells were plated in 100 mm Petri dishes at a concentration of 10^6 cells per dish. The next day, a solution of DNA diluted in 1 mL OptiMEM (Invitrogen) per dish was prepared and incubated for 15 min at room temperature. […]
NGF binding was evaluated using methods familiar to those who are skilled in the art. […] Non-specific binding was determined for reference by incubating ^125I-NGF with an excess of non-radioactive NGF in the abence of compound. Following a two-hour incubation period at 4° C., ^125I-NGF bound to the cells was quantified in a gamma radiation counter following separation from unbound NGF by filtration or centrifugation through glycerol (10% in HKR). Inhibition of binding was calculated as a percent of the specific binding (calculated as the differential between ^125I-NGF binding in the absence and presence of an excess of non-radioactive NGF without compound). […]

Structure (SMILES): O=C(O)c1ccc(Cl)c(N2C(=O)c3cc([N+](=O)[O-])cc4cc([N+](=O)[O-])cc(c34)C2=O)c1 [Compound 7, 4-Chloro-3-(5,8-dinitro-1,3-dioxo-1H,3H-benzol[de]isoquinolin-2-yl)-benzoic acid]
- blocking of NGF binding (dose-response curve) [1]: effectively blocks NGF binding

Structure (SMILES): O=C(O)c1cc(Cl)cc(N2C(=O)c3cccc4cc([N+](=O)[O-])cc(c34)C2=O)c1Cl [Compound 51, 2,5-Dichloro-3-(5-nitro-1,3-dioxo-1H,3H-benzo[de]isoquinolin-2-yl)-benzoic acid]
- PC12 (TrkA & p75) Single point (% max binding) Mean ([1]; compound concentration 50 μM): * (* > 50)

Structure (SMILES): O=C(O)c1ccc(Cl)c(N2C(=O)c3cc(Br)cc4cc([N+](=O)[O-])cc(c34)C2=O)c1 [Compound 53, 3-(5-Bromo-8-nitro-1,3-dioxo-1H,3H-benzo[de]isoquinolin-2-yl)-4-chloro-benzoic acid]
- PC12 (TrkA & p75) Single point (% max binding) Mean ([1]; compound concentration 50 μM): * (* > 50)

Structure (SMILES): Nc1cc2c3c(cc(Br)cc3c1)C(=O)N(c1cc(C(=O)O)ccc1Cl)C2=O [Compound 56, 3-(5-Amino-8-bromo-1,3-dioxo-1H,3H-benzo[de]isoquinolin-2-yl)-4-chloro-benzoic acid]
- PC12 (TrkA & p75) Single point (% max binding) Mean ([1]; compound concentration 50 μM): * (* > 50)

Structure (SMILES): CC(=O)Nc1cc2c3c(cc(Br)cc3c1)C(=O)N(c1cc(C(=O)O)ccc1Cl)C2=O [Compound 57, 3-(5-Acetylamino-8-bromo-1,3-dioxo-1H,3H-benzo[de]isoquinolin-2-yl)-4-chloro-benzoic acid]
- PC12 (TrkA & p75) Single point (% max binding) Mean ([1]; compound concentration 50 μM): ** (30 > ** > 50)

Structure (SMILES): O=C1c2cccc3cc([N+](=O)[O-])cc(c23)C(=O)N1c1ccc(S(=O)(=O)O)cc1 [Compound 71, 4-(5-Nitro-1,3-dioxo-1H,3H-benzo[de]isoquinolin-2-yl)-benzenesulfonic acid]
- blocking of NGF binding (dose-response curve) [1]: effectively block NGF binding

Structure (SMILES): CC(=O)Nc1cc2c3c(cc(NC(C)=O)cc3c1)C(=O)N(c1cccc(C(=O)O)c1)C2=O [Compound 94, 3-(5,8-Bis-acetylamino-1,3-dioxo-1H,3H-benzo[de]isoquinolin-2-yl)-benzoic acid]
- blocking of NGF binding (dose-response curve) [1]: effectively blocks NGF binding
- blocking of NGF binding to TrkA (dose-response curve) [2]: effectively blocks NGF binding to TrkA

Structure (SMILES): O=C(O)c1ccc(Cl)c(N2C(=O)c3cccc4c(C(=O)c5ccccc5)ccc(c34)C2=O)c1 [Compound 98, 3-(6-Benzoyl-1,3-dioxo-1H,3H-benzo[de]isoquinolin-2-yl)-4-chloro-benzoic acid]
- PC12 (TrkA & p75) Single point (% max binding) Mean ([1]; compound concentration 25 μM): *** (0 > *** > 30)

Structure (SMILES): O=C(O)c1ccc(Cl)c(N2C(=O)c3cccc4c(C(=O)O)ccc(c34)C2=O)c1 [Compound 99, 2-(5-Carboxy-2-chloro-phenyl)-1,3-dioxo-2,3-dihydro-1H-benzo[de]isoquinoline-6-carboxylic acid]
- PC12 (TrkA & p75) Single point (% max binding) Mean ([1]; compound concentration 25 μM): * (* > 50)

Structure (SMILES): CCOC(=O)c1cccc(N2C(=O)c3cccc4cccc2c34)c1 [Compound 105, 3-(2-Oxo-2H-benzo[cd]indol-1-yl)-benzoic acid ethyl ester]
- PC12 (TrkA & p75) Single point (% max binding) Mean ([1]; compound concentration 25 μM): * (* > 50)

Structure (SMILES): CCOC(=O)c1cccc(N2C(=O)c3cccc4c([N+](=O)[O-])ccc2c34)c1 [Compound 106, 3-(6-Nitro-2-oxo-2H-benzo[cd]indol-1-yl)-benzoic acid ethyl ester]
- PC12 (TrkA & p75) Single point (% max binding) Mean ([1]; compound concentration 25 μM): * (* > 50)

Structure (SMILES): O=C(O)c1cccc(N2C(=O)c3cccc4cccc2c34)c1 [Compound 107, 3-(2-Oxo-2H-benzo[cd]indol-1-yl)-benzoic acid]
- PC12 (TrkA & p75) Single point (% max binding) Mean ([1]; compound concentration 25 μM): ** (30 > ** > 50)

Structure (SMILES): CCOC(=O)c1cc(N2C(=O)c3cccc4c([N+](=O)[O-])ccc2c34)ccc1Cl [Compound 108, 2-Chloro-5-(6-nitro-2-oxo-2H-benzo[cd]indol-1-yl)-benzoic acid ethyl ester]
- PC12 (TrkA & p75) Single point (% max binding) Mean ([1]; compound concentration 25 μM): * (* > 50)

Structure (SMILES): CC(=O)Nc1ccc(C(=O)O)cc1N1C(=O)c2cccc3cc([N+](=O)[O-])cc(c23)C1=O [Compound 110, 4-Acetylamino-3-(5-nitro-1,3-dioxo-1H,3H-benzo[de]isoquinolin-2-yl)-benzoic acid]
- PC12 (TrkA & p75) Single point (% max binding) Mean ([1]; compound concentration 25 μM): ** (30 > ** > 50)

Structure (SMILES): O=C(O)c1ccc(Cl)c(N2C(=O)c3cccc4c(Cl)ccc(c34)C2=O)c1 [Compound 111, 4-Chloro-3-(6-chioro-1,3-dioxo-1H,3H-benzo[de]isoquinolin-2-yl)-benzoic acid]
- PC12 (TrkA & p75) Single point (% max binding) Mean ([1]; compound concentration 25 μM): ** (30 > ** > 50)

Structure (SMILES): Nc1cc2c3c(cc(N)cc3c1)C(=O)N(c1ccc(S(=O)(=O)O)cc1)C2=O [Compound 118, 4-(5,8-Diamino-1,3-dioxo-1H,3H-benzo[de]isoquinolin-2-yl)-benzenesulfonic acid]
- PC12 (TrkA & p75) Single point (% max binding) Mean ([1]; compound concentration 50 μM): ** (30 > ** > 50)

Structure (SMILES): CC(=O)Nc1cc2c3c(cc(NC(C)=O)cc3c1)C(=O)N(c1ccc(S(=O)(=O)O)cc1)C2=O [Compound 119, 4-(5,8-Bis-acetylamino-1,3-dioxo-1H,3H-benzol[de]isoquinolin-2-yl)-benzenesulfonic acid]
- PC12 (TrkA & p75) Single point (% max binding) Mean ([1]; concentration cell printed as '═'): ** (30 > ** > 50)
